Measurements published in patent US20250346512A1, “WATER TREATMENT METHOD, WATER TREATMENT APPARATUS, SLIME INHIBITOR, AND CLEANING METHOD” (ORGANO CORPORATION, priority 2022, published 2025).

Tested on: viable bacteria
Assay: Contact of slime inhibitor with water containing viable bacteria
Assay type: cell-based
Excerpt: The slime inhibitor was brought into contact with water containing viable bacteria, and the number of viable bacteria before the contact with the slime inhibitor and the number of viable bacteria after contact with the slime inhibitor for one hour were examined.

`OCl` [Sodium hypochlorite, sodium hypochlorite] was tested, and the “Number of viable bacteria before contact with slime inhibitor” value (baseline before contact) was 10^6 and the “Number of viable bacteria after contact with slime inhibitor for one hour” value (slime inhibitor 0.1 mg/L as Cl2, contact one hour) was 10^5.
